Data set [1] deals with Experimental Osteoarthritis in Rabbit. The data set is described as follows: EOA in Rabbit: histologic grading of cartilage lesions (Mankin scale). In kind it is in vivo. Particulars: for Cells (0–3) / Safranin-O Staining (0–4) / Structure (0–6) / Total (0–13): 150 mg/kg/po/day, 8 weeks after surgery, mean ± SEM. As for the experimental part:
(§1) Normal rabbits were anaesthetized and anteromedial incisions of the right knees performed. The anterior cruciate ligaments were visualized and sectioned. The wounds were closed and the animals were housed in individual cages, exercised, and fed ad libitum. Rabbits were given either vehicle (water), gabapentin, or 3-(1-aminomethyl-cyclohexylmethyl)-4h-[1,2,4]oxadiazol-5-one hydrochloride (10 rabbits per group). Each group was dosed three times per day with the gabapentin group receiving 100-mg/kg/dose and the 3-(1-aminomethyl-cyclohexylmethyl)-4h-[1,2,4]oxadiazol-5-one hydrochloride group receiving 50-mg/kg/dose. The rabbits were euthanized 8 weeks after surgery and the proximal end of the tibia and the distal end of the femur were removed from each animal.
Histologic evaluation was performed on sagittal sections of cartilage from the lesional areas of the femoral condyle and tibial plateau. Serial sections (5 um) were prepared and stained with safranin-O. The severity of OA lesions was graded on a scale of 0–14 by two independent observers using the histologic-histochemical scale of Mankin et al. This scale evaluates the severity of OA lesions based on the loss of safranin-O staining (scale 0–4), cellular changes (scale 0–3), invasion of tidemark by blood vessels (scale 0–1) and structural changes (scale 0–6). On this latter scale, 0 indicates normal cartilage structure and 6 indicates erosion of the cartilage down to the subchondral bone. The scoring system was based on the most severe histologic changes in the multiple sections.
(§2) Mean values and SEM was calculated and statistical analysis was done using the Mann-Whitney U-test.

Data set [2] shares this test system. Kind of data set: EOA in Rabbit: histological grading of synovial membrane. In kind it is in vivo. Particulars: 150 mg/kg/po/day, 8 weeks after surgery, mean ± SEM. On the procedure:
as §1
Representative specimens of synovial membrane from the medial and lateral knee compartments were dissected from underlying tissues. The specimens were fixed, embedded, and sectioned (5 um) as above, and stained with hematoxylin-eosin. For each compartment, two synovial membrane specimens were examined for scoring purposes and the highest score from each compartment was retained. The average was calculated and considered as a unit for the whole knee. The severity of synovitis was graded on a scale of 0 to 10 by two independent observers, adding the scores of 3 histologic criteria: synovial lining cell hyperplasia (scale 0–2); villous hyperplasia (scale 0–3); and degree of cellular infiltration by mononuclear and polymorphonuclear cells (scale 0–5): 0 indicates normal structure.
as §2

The test system is the same in data set [3]. The data set is described as follows: EOA in Rabbit: macroscopic grading of cartilage lesions. In kind it is in vivo. As for the experimental part: as §1
The cartilage changes on the femoral condyles and tibial plateaus were graded separately under a dissecting microscope (Stereozoom, Bausch & Lomb, Rochester, N.Y.). The depth of erosion was graded on a scale of 0 to 4 as follows: grade 0=normal surface; Grade 1=minimal fibrillation or a slight yellowish discoloration of the surface; Grade 2=erosion extending into superficial or middle layers only; Grade 3=erosion extending into deep layers; Grade 4=erosion extending to subchondral bone. The surface area changes was measured and expressed in mm^2. Representative specimens will also be used for histologic grading (see below).
as §2

Data set [4] deals with Monosodium Iodoacetate-Induced Osteoarthritis in Rat. Kind of data set: MIA Rat: free proteoglycan in knee joint. Conditions: for treatment of cartilage damage (conclusion from Table 6): MIA Rat, osmotic pump 30 mg/kg/day; for Proteoglycan loss (%) / Inhibition of Proteoglycan loss (%): intravenously by osmotic pump 30 mg/kg/day; for Proteoglycan loss (%): osteoarthritic right knee joint vs contralateral left knee joint, vehicle 18.10 (1b) and 31.90 (2b); for Inhibition of Proteoglycan loss (%): versus vehicle (water). It is filed as in vivo. From the text:
The incapacitance tester has a chamber on top with an outwardly sloping front wall that supports a rat's front limbs, and two weight sensing pads, one for each hind paw, that facilitates this determination. […] The rats were further administered either a GABA analog or vehicle (in the instant case, water) daily for 14 days. […] It is well within the level of ordinary skill in the pharmaceutical arts to determine a proper dosage of a GABA analog in this model. In the instant experiment, administration of the GABA analog was optionally by oral administration or intravenous administration via an osmotic pump. After 7 and 14 days, the hind-paw weight distribution was again determined. […] Percent inhibition of cartilage damage was calculated as the percent change in hind-paw weight distribution for treated animals versus control animals: In order to measure biochemical or histopathological end points in the MIA Rat model, some of the animals in the above study were then sacrificed, and the amounts of free proteoglycan in both the osteoarthritic right knee joint and the contralateral left knee joint were determined by biochemical analysis. The amount of free proteoglycan in the contralateral left knee joint provides a baseline value for the amount of free proteoglycan in a healthy joint. The amount of proteoglycan in the osteoarthritic right knee joint in animals further administered a GABA analog, and the amount of proteoglycan in the osteoarthritic right knee joint in animals further administered vehicle alone, were independently compared to the amount of proteoglycan in the contralateral left knee joint. The amounts of proteoglycan lost in the osteoarthritic right knee joints were expressed as percent loss of proteoglycan compared to the contralateral left knee joint control. The results are shown below in Table 6 in the column labelled, “Proteoglycan loss (%)”. Also shown in Table 6, in the column labelled “Inhibition of Proteoglycan loss (%)”, is the percent inhibition of proteoglycan loss, which was calculated as {[(proteoglycan loss from joint (%) with vehicle)−(proteoglycan loss from joint with GABA analog)]÷(proteoglycan loss from joint (%) with vehicle)}×100.

Data set [5] shares this test system. Kind of data set: MIA Rat: hind-paw weight distribution. It is filed as in vivo. Particulars: for % Inhibition (of cartilage damage, hind-paw weight distribution): 14 days, Day 14; for preventing or treating cartilage damage (conclusion from Table 5): MIA Rat, doses and routes of Table 5. From the text:
One end result of the induction of osteoarthritis in this model, as determined by histologic analysis, is the development of an osteoarthritic condition within the affected joint, as characterized by the loss of Toluidine blue staining and formation of osteophytes. Associated with the histologic changes is a concentration-dependent degradation of joint cartilage, as evidenced by affects on hind-paw weight distribution of the limb containing the affected joint, the presence of increased amounts of proteoglycan or hydroxyproline in the joint upon biochemical analysis, or histopathological analysis of the osteoarthritic lesions.
In the MIA Rat model on Day 0, the hind-paw weight differential between the right arthritic joint and the left healthy joint of male Wistar rats (150 g) were determined with an incapacitance tester, model 2KG (Linton Instrumentation, Norfolk, United Kingdom). The incapacitance tester has a chamber on top with an outwardly sloping front wall that supports a rat's front limbs, and two weight sensing pads, one for each hind paw, that facilitates this determination. Then the rats were anesthetized with isofluorine, and the right, hind leg knee joint was injected with 1.0 mg of mono-iodoacetate (“MIA”) through the infrapatellar ligament. […] The rats were further administered either a GABA analog or vehicle (in the instant case, water) daily for 14 days. The GABA analog was typically administered at a dose of 30 mg of GABA analog per kilogram of rat per day (30 mg/kg/day), but may be administered at other doses such as, for example, 10 mg/kg/day, 60 mg/kg/day, or 100 mg/kg/day according to the requirements of the compound being studied. It is well within the level of ordinary skill in the pharmaceutical arts to determine a proper dosage of a GABA analog in this model. In the instant experiment, administration of the GABA analog was optionally by oral administration or intravenous administration via an osmotic pump. After 7 and 14 days, the hind-paw weight distribution was again determined. […] Percent inhibition of cartilage damage was calculated as the percent change in hind-paw weight distribution for treated animals versus control animals:
[formula] wherein: ΔWC is the hind-paw weight differential between the healthy left limb and the arthritic limb of the control animal administered vehicle alone, as measured on Day 14; and • ΔWG is the hind-paw weight differential between the healthy left limb and the arthritic limb of the animal administered a GABA analog, as measured on Day 14.
The results of the hind-paw weight distribution data are shown below in Table 5 in the column labelled “% Inhibition”.

Setting [6] is: 50 mg/kg/dose three times per day, 8 weeks, Table 1.
The mark [7] stands for this setting: 30 mg/kg oral, twice daily dosing of the indicated dose.
The mark [8] stands for this setting: daily dose 30 mg/kg, osmotic pump.

Where a name gives a salt, the structure may show the parent alone.

The molecule `CS(=O)(=O)NCCC1(CN)CCCCC1.Cl` gave a melting point of 196 to 199 °C.
Still for that read-out and setting: the value for `CC(C)CC(CN)Cc1noc(=S)[nH]1.Cl` (stereo not drawn) was 183 to 185 °C; that for `Cl.NCC1(Cc2noc(=S)[nH]2)CCCCC1` was 210 to 212 °C; that for `CCCC(C(C)C)C(CN)CC(=O)O` (stereo not drawn) (as salt: HCl) was 160 to 170 °C.
In the case of `Cl.NCC1(Cc2noc(=O)[nH]2)CCCCC1` [3-(1-Aminomethyl-cyclohexylmethyl)-4H-[1,2,4]oxadiazol-5-one; hydrochloride], the “histologic damage (in words)” value in data set [1] (50 mg/kg/dose three times per day, 8 weeks, text on Table 2 and 3) was “reduced histologic damage”. Further, in data set [1] (Femoral Condyles), the “Cells (0–3)” value was 1.60 ± 0.2 and the “Safranin-O Staining (0–4)” value turned out to be 1.25 ± 0.3. Further, the “Structure (0–6)” value in data set [1] (Femoral Condyles, p < 0.01) was found to be 1.35 ± 0.3. In addition, the “Total (0–13)” value in data set [1] (Femoral Condyles, p < 0.04) worked out at 4.20 ± 0.6. In data set [1] (Tibial Plateaus), the “Cells (0–3)” value was 0.60 ± 0.2, the “Safranin-O Staining (0–4)” value is reported as 0.18 ± 0.1 and the “Structure (0–6)” value is given as 0.90 ± 0.2. Also, in data set [1] (Tibial Plateaus, p > 0.02), the “Total (0–13)” value came to 1.77 ± 0.4. In data set [2], the “Cellular Infiltration (0–5 Scale)” value was 0.35 ± 0.2 and the “Synovial Lining (0–2 Scale)” value was 0.85 ± 0.1. In data set [2] (p < 0.001), the “Villous Hyperplasia (0–3 Scale)” value worked out at 1.15 ± 0.1. In data set [2] (p < 0.002), the “Total (0–10)” value turned out to be 2.35 ± 0.3. Besides, in data set [3] (setting [6]), the “damage score for both the femoral condyles and the tibial plateaus (in words)” value is recorded as “reduced”; the “lesion size on the plateaus (in words)” value is listed as “reduced”. Besides, the “Femoral Condyles Size” value in data set [3] (150 mg/kg/po/day (50 mg/kg/dose three times per day), 8 weeks after surgery, mean ± SEM) worked out at 6.93 ± 3.1 mm^2. Moreover, the “Tibial Plateaus Size” value in data set [3] (150 mg/kg/po/day (50 mg/kg/dose three times per day), 8 weeks after surgery, mean ± SEM, p < 0.002) was 1.95 ± 0.8 mm^2. Moreover, the “Tibial Plateaus Grade (0–4)” value in data set [3] (150 mg/kg/po/day (50 mg/kg/dose three times per day), 8 weeks after surgery, mean ± SEM, p < 0.02) is 0.55 ± 0.2. Moreover, the “Femoral Condyles Grade (0–4)” value in data set [3] (150 mg/kg/po/day (50 mg/kg/dose three times per day), 8 weeks after surgery, mean ± SEM, p < 0.04) worked out at 0.67 ± 0.2. Also, the “treatment of cartilage damage (conclusion from the EOA in Rabbit study)” value in data set [3] (gabapentin 100 mg/kg/dose, test compound 50 mg/kg/dose, three times per day, 8 weeks) was “effective”. Further, in data set [4], the “treatment of cartilage damage (conclusion from Table 6)” value is given as “effective”, the “Proteoglycan loss (%)” value is 6.70% and the “Inhibition of Proteoglycan loss (%)” value is recorded as 63%. In data set [5] (setting [7]), the “% Inhibition (of cartilage damage, hind-paw weight distribution)” value is 47 ± 20%. The “preventing or treating cartilage damage (conclusion from Table 5)” value (“preventing or treating cartilage damage” below) in data set [5] is “effective”. Also, the “% Inhibition (of cartilage damage, hind-paw weight distribution)” value in data set [5] (setting [8]) is reported as 46 ± 10%.
`Cl.NCC1(Cc2noc(=O)[nH]2)CCCCCC1` [3-(1-aminomethyl-cycloheptylmethyl)-4H-[1,2,4]oxadiazol-5-one hydrochloride]: in data set [5], the “preventing or treating cartilage damage” value was “effective”. In data set [5] (setting [8]), the “% Inhibition (of cartilage damage, hind-paw weight distribution)” value is 62 ± 8%.
On to `CC(C)CC(CN)Cc1noc(=O)[nH]1.Cl` (stereo not drawn) [3-(2-Aminomethyl-4-methyl-pentyl)-4H-[1,2,4]oxadiazole-5-one; HCl], for which the “preventing or treating cartilage damage” value in data set [5] is recorded as “effective”. Besides, the “% Inhibition (of cartilage damage, hind-paw weight distribution)” value in data set [5] (setting [8]) was found to be 35 ± 8%.
As to `Cl.NCC(c1noc(=O)[nH]1)C1CCCC1` (stereo not drawn) [3-(2-amino-1-cyclopentyl-ethyl)-4H-[1,2,4]oxadiazol-5-one hydrochloride], in data set [5], the “preventing or treating cartilage damage” value is given as “effective”. In addition, the “% Inhibition (of cartilage damage, hind-paw weight distribution)” value in data set [5] (setting [8]) stood at 104%.
Consider `Cl.NCC1(CC(=O)O)CC2CCC2C1` (stereo not drawn) [(1α,3α,5α)(3-Aminomethyl-bicyclo[3.2.0]hept-3-yl)-acetic acid hydrochloride], for which, in data set [4], the “treatment of cartilage damage (conclusion from Table 6)” value was “effective”, the “Proteoglycan loss (%)” value is recorded as 16.60% and the “Inhibition of Proteoglycan loss (%)” value came to 48%. The “% Inhibition (of cartilage damage, hind-paw weight distribution)” value in data set [5] (setting [8]) is −3 ± 34%.
As for `NCC1(Cc2nnn[nH]2)CCCCCC1` [C-[1-(1H-tetrazol-5-ylmethyl)-cycloheptyl]-methylamine], the “% Inhibition (of cartilage damage, hind-paw weight distribution)” value in data set [5] (setting [8]) is −33 ± 17%.
`CC(C)C[C@H](CN)CC(=O)O` [Pregabalin, (S)-3-(aminomethyl)-5-methylhexanoic acid, reference compound]: the “% Inhibition (of cartilage damage, hind-paw weight distribution)” value in data set [5] (setting [7]) was −3 ± 12%.

As a reminder, the melting point is the temperature of the solid-liquid transition.

Values taken from US7189747B2, “Method of treating noninflammatory cartilage damage” (Warner-Lambert Company, priority 2000, dated 2007).
